According to patent publication EP4714949A1, “NOVEL COMPOUNDS CAPABLE OF INDUCING OSTEOGENIC DIFFERENTIATION” (AJOU UNIVERSITY INDUSTRY-ACADEMIC COOPERATION FOUNDATION, priority 2023, dated 2024):

Tests used:
p53 = p53 activation in hDPSCs (FIG. 2, compound and concentration selection); format: cell-based, Human
MDM2 = target: T1, MDM2 (Homo sapiens, UniProt Q00987); assay: MDM2 protein degradation by Western blot (SDS-PAGE) in hDPSCs; format: cell-based; conditions: FIG. 2, selection among initially selected compounds
T1 construct: evaluate the intracellular MDM2 protein degradation capacity; endogenous in cells; host or cells: human dental pulp stem cells (hDPSCs)
Experimental: Human dental pulp stem cell lines (hDPSCs) were treated with 14 types of synthesized MDM2-PROTACs (10 µM) for 1 hour and Western blot analysis using SDS-PAGE gel was performed to evaluate the intracellular MDM2 protein degradation capacity.

T1 sequence (Q00987 whole entry): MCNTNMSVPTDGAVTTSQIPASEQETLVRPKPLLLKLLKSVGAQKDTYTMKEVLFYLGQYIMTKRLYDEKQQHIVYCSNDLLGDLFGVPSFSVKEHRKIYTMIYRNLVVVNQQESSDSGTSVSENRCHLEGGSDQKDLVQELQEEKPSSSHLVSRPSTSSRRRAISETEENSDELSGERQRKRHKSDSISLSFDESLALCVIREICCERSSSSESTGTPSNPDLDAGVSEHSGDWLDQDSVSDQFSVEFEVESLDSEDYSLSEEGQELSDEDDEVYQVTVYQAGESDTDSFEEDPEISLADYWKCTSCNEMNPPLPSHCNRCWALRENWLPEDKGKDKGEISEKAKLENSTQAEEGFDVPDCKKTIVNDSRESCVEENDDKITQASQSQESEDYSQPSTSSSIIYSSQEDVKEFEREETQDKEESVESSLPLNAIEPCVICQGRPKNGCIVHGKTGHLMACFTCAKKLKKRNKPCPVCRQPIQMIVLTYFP

| MDM2 degradation (MDM2) | Compound | p53 activation (p53) |
| --- | --- | --- |
| effectively degrade MDM2 | COc1ccc(C2=NC(c3ccc(Cl)cc3)C(c3ccc(Cl)cc3)N2C(=O)N2CCN(CC(=O)NCCCCCCCC#Cc3cccc4c3C(=O)N(C3CCC(=O)NC3=O)C4=O)C(=O)C2)c(OC(C)C)c1 (stereo not drawn) [Compound 16b, 2-(4-(cis-4,5-bis(4-chlorophenyl)-2-(2-isopropoxy-4-methoxyphenyl)-4,5-dihydro-1H-imidazole-1-carbonyl)-2-oxopiperazin-1-yl)-N-(9-(2-(2,6-dioxopiperidin-3-yl)-1,3-dioxoisoindolin-4-yl)non-8-yn-1-yl) acetamide] | activate p53 |
| effectively degrade MDM2 | COc1ccc(C2=NC(c3ccc(Cl)cc3)C(c3ccc(Cl)cc3)N2C(=O)N2CCN(CC(=O)NCCCCCCCCOc3cccc4c3C(=O)N(C3CCC(=O)NC3=O)C4=O)C(=O)C2)c(OC(C)C)c1 (stereo not drawn) [Compound 6b, 2-(4-(cis-4,5-bis(4-chlorophenyl)-2-(2-isopropoxy-4-methoxyphenyl)-4,5-dihydro-1H-imidazole-1-carbonyl)-2-oxopiperazin-1-yl)-N-(8-((2-(2,6-dioxoopiperidin-3-yl)-1,3-dioxoisoindolin-4-yl)oxy)octyl)acetamide] | activate p53 |
